The numbers were not newly measured in US11331275B2 (Humanwell PuraCap Pharmaceuticals (Wuhan) Co., Ltd, priority 2017, dated 2022), which cites them from elsewhere.

`C=C(c1ccc(C(=O)O)cc1)c1cc2c(cc1C)C(C)(C)CCC2(C)C` [bexarotene, 4-[1-(5,6,7,8-tetrahydro-3,5,5,8,8-pentamethyl-2-naphthyl)ethenyl] benzoic acid]: for the setting “acetonitrile”, the solubility in acetonitrile entry is “soluble”. The solubility in dimethylsulfoxide entry (dimethylsulfoxide) is “soluble”. Also, the solubility in methanol entry (methanol) is recorded as “slightly soluble”. The solubility in water result (water) is “almost insoluble”.
